# Key:
# Format in all cases: cell-based
# PPARα [1] = molecular target: T1, PPARα (Mus musculus, UniProt P23204); experiment: AOX target gene expression (qPCR) in FAO-PPARα cells at […]; conditions: fao-pparalpha cells, 0.1 µM
# T1 construct: gene Ppara; FAO cells stably transfected with mouse PPARα
# T1 sequence (P23204 1-468): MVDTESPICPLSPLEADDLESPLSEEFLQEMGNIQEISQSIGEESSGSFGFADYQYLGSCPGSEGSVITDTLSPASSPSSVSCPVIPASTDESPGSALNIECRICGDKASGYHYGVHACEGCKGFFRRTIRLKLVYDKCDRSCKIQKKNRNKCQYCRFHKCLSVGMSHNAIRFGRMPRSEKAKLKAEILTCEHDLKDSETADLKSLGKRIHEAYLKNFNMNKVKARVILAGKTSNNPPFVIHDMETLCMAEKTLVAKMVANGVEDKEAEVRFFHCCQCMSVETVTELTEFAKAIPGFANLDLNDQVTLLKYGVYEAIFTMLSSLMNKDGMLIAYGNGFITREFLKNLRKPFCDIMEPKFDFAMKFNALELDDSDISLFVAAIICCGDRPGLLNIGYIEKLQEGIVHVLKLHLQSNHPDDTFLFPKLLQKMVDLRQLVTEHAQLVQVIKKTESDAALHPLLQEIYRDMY
# PPARα [2] = molecular target: T1, PPARα; experiment: as above; conditions: read-out: AOX target gene expression (qPCR) in FAO-PPARα cells at 100 μM
# PPARγ [3] = molecular target: T2, PPARγ (Mus musculus, UniProt P37238); experiment: FABP4 target gene expression (qPCR) in NIH 3T3 L1 cells at […]; conditions: NIH3T3, read-out: FABP4 target gene expression (qPCR) in NIH 3T3 L1 cells at 100 μM
# T2 construct: gene Pparg
# T2 sequence (P37238 1-505): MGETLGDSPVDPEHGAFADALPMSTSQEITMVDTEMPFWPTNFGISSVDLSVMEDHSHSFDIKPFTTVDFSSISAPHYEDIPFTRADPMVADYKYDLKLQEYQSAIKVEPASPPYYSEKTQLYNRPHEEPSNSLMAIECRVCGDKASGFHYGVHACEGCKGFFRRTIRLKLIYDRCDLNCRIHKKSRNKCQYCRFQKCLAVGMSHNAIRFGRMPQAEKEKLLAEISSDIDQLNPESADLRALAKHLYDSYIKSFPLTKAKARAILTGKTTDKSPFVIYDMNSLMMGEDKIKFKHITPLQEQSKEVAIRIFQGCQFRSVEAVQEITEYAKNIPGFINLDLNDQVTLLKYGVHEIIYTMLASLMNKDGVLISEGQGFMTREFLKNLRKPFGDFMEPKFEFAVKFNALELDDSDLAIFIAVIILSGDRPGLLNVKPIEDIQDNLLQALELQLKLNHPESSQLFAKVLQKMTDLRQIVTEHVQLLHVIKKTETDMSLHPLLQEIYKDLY
# PPARα [4] = molecular target: T1, PPARα; experiment: AOX target gene expression (qPCR) in FAO-PPARα cells
# PPARγ [5] = molecular target: T2, PPARγ; experiment: FABP4 target gene expression and lipid accumulation in NIH 3T3 L1 cells, with PPARγ shRNA knockdown
# PPARγ [6] = molecular target: T2, PPARγ; experiment: FABP4 target gene expression (qPCR) in NIH 3T3 L1 cells at […]; conditions: NIH3T3, read-out: FABP4 target gene expression (qPCR) in NIH 3T3 L1 cells at 100 nM
compound,measurement,setting,value
"CC(C)(Sc1ccc(CCN(CCCCC2CCCCC2)C(=O)NC2CCCCC2)cc1)C(=O)O [GW7647, 2-(4-(2-(1-(cyclohexanebutyl)-3-cyclohexylureido)ethyl)phenylthio)-2-methylpropionic acid]",AOX target gene expression (qPCR) in FAO-PPARα cells at 100 nM,PPARα [1],4.9 ± 0.5 fold increase
CCCCC(CC)COC(=O)c1ccccc1C(=O)O (stereo not drawn) [MEHP],fold induction at 100 µM,PPARα [2],5.4 ± 0.6
same,fold induction at 100 µM,PPARγ [3],11.5 ± 2.7
CCCCC(CC)COC(=O)c1c(Br)c(Br)c(Br)c(Br)c1C(=O)O (stereo not drawn) [TBMEHP],AOX target gene expression (qPCR) in FAO-PPARα cells,PPARα [4],"TBMEHP, but not TBPH, significantly up-regulated the expression of both FABP4 and AOX mRNA"
same,"FABP4 target gene expression and lipid accumulation in NIH 3T3 L1 cells, with PP",PPARγ [5],"TBMEHP-induced expression of the PPARγ target gene, FABP4, was significantly impaired in PPARγ-shRNA transduced cells"
CN(CCOc1ccc(CC2SC(=O)NC2=O)cc1)c1ccccn1 (stereo not drawn) [rosiglitazone],fold induction at 0.1 µM,PPARγ [6],6 ± 1.4
